Experimental data reported in PubChem BioAssay AID2060910 (Molecular Pharmacology Branch, DTP, NCI, 2025).
pIC50: −log10 of the molar value.

System: 242566-281-R-J2-PDC complex spheroid viability
Assay: Anticancer human tumor 242566-281-R-J2-PDC patient-derived pancreatic carcinoma cell line growth inhibition [RAS]
Settings: for pIC50: curve of first compound; for viability, T/C: stronger effect = lower value
Method in brief: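 Multi-cell-type spheroids: tumor cells plus HUVEC endothelial cells and mesenchymal stem cells. RAS-pathway inhibitors were combined with targeted agents, each dosed in half-log steps down from clinical Cmax, or from 10 microM when Cmax was unknown.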

[1] = second compound 0.00316 µM, first compound 0.000949 µM
[2] = second compound 0.00316 µM, first compound 0.003 µM
[3] = second compound 0.00316 µM, first compound 0.00949 µM
[4] = second compound 0.00316 µM, first compound 0.03 µM
[5] = second compound 0.00316 µM, first compound 0.0949 µM
[6] = second compound 0.00316 µM, first compound 0.3 µM
[7] = second compound 0.01 µM, first compound 0.000949 µM
[8] = second compound 0.01 µM, first compound 0.003 µM
[9] = second compound 0.01 µM, first compound 0.00949 µM
[10] = second compound 0.01 µM, first compound 0.03 µM
[11] = second compound 0.01 µM, first compound 0.0949 µM
[12] = second compound 0.01 µM, first compound 0.3 µM
[13] = second compound 0.0316 µM, first compound 0.000949 µM
[14] = second compound 0.0316 µM, first compound 0.003 µM
[15] = second compound 0.0316 µM, first compound 0.00949 µM
[16] = second compound 0.0316 µM, first compound 0.03 µM
[17] = second compound 0.0316 µM, first compound 0.0949 µM
[18] = second compound 0.0316 µM, first compound 0.3 µM
[19] = second compound 0.1 µM, first compound 0.000949 µM
[20] = second compound 0.1 µM, first compound 0.003 µM
[21] = second compound 0.1 µM, first compound 0.00949 µM
[22] = second compound 0.1 µM, first compound 0.03 µM
[23] = second compound 0.1 µM, first compound 0.0949 µM
[24] = second compound 0.1 µM, first compound 0.3 µM
[25] = second compound 0.316 µM, first compound 0.000949 µM
[26] = second compound 0.316 µM, first compound 0.003 µM
[27] = second compound 0.316 µM, first compound 0.00949 µM
[28] = second compound 0.316 µM, first compound 0.03 µM
[29] = second compound 0.316 µM, first compound 0.0949 µM
[30] = second compound 0.316 µM, first compound 0.3 µM
[31] = second compound 1 µM, first compound 0.000949 µM
[32] = second compound 1 µM, first compound 0.003 µM
[33] = second compound 1 µM, first compound 0.00949 µM
[34] = second compound 1 µM, first compound 0.03 µM
[35] = second compound 1 µM, first compound 0.0949 µM
[36] = second compound 1 µM, first compound 0.3 µM
[37] = second compound 0.000949 µM, first compound 0.00316 µM
[38] = second compound 0.000949 µM, first compound 0.01 µM
[39] = second compound 0.000949 µM, first compound 0.0316 µM
[40] = second compound 0.000949 µM, first compound 0.1 µM
[41] = second compound 0.000949 µM, first compound 0.316 µM
[42] = second compound 0.000949 µM, first compound 1 µM
[43] = second compound 0.003 µM, first compound 0.00316 µM
[44] = second compound 0.003 µM, first compound 0.01 µM
[45] = second compound 0.003 µM, first compound 0.0316 µM
[46] = second compound 0.003 µM, first compound 0.1 µM
[47] = second compound 0.003 µM, first compound 0.316 µM
[48] = second compound 0.003 µM, first compound 1 µM
[49] = second compound 0.00949 µM, first compound 0.00316 µM
[50] = second compound 0.00949 µM, first compound 0.01 µM
[51] = second compound 0.00949 µM, first compound 0.0316 µM
[52] = second compound 0.00949 µM, first compound 0.1 µM
[53] = second compound 0.00949 µM, first compound 0.316 µM
[54] = second compound 0.00949 µM, first compound 1 µM
[55] = second compound 0.03 µM, first compound 0.00316 µM
[56] = second compound 0.03 µM, first compound 0.01 µM
[57] = second compound 0.03 µM, first compound 0.0316 µM
[58] = second compound 0.03 µM, first compound 0.1 µM
[59] = second compound 0.03 µM, first compound 0.316 µM
[60] = second compound 0.03 µM, first compound 1 µM
[61] = second compound 0.0949 µM, first compound 0.00316 µM
[62] = second compound 0.0949 µM, first compound 0.01 µM
[63] = second compound 0.0949 µM, first compound 0.0316 µM
[64] = second compound 0.0949 µM, first compound 0.1 µM
[65] = second compound 0.0949 µM, first compound 0.316 µM
[66] = second compound 0.0949 µM, first compound 1 µM
[67] = second compound 0.3 µM, first compound 0.00316 µM
[68] = second compound 0.3 µM, first compound 0.01 µM
[69] = second compound 0.3 µM, first compound 0.0316 µM
[70] = second compound 0.3 µM, first compound 0.1 µM
[71] = second compound 0.3 µM, first compound 0.316 µM
[72] = second compound 0.3 µM, first compound 1 µM
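Note: spheroids exposed to compound for 7 days before readout.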
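Throughout, for viability, T/C: 100% = DMSO vehicle control wells.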

CC1(C)CCC(Nc2ncc(C(F)(F)F)c(-c3c[nH]c4c(P(C)(C)=O)c(C#N)ccc34)n2)CN1 (stereo not drawn) + C=CC(=O)N1CCN(c2nc(OCC3CCCN3C)nc3c(F)c(-c4nc(N)cc(C)c4C(F)(F)F)c(Cl)cc23)C(C)C1
pIC50 (second compound 0.00316 µM): < 6.52 | pIC50 (second compound 0.01 µM): < 6.52 | pIC50 (second compound 0.0316 µM): < 6.52 | pIC50 (second compound 0.1 µM): < 6.52 | pIC50 (second compound 0.316 µM): < 6.52 | pIC50 (second compound 1 µM): < 6.52 | viability, T/C [1]: 109% | viability, T/C [2]: 161% | viability, T/C [3]: 154% | viability, T/C [4]: 128% | viability, T/C [5]: 146% | viability, T/C [6]: 135% | viability, T/C [7]: 137% | viability, T/C [8]: 151% | viability, T/C [9]: 142% | viability, T/C [10]: 124% | viability, T/C [11]: 158% | viability, T/C [12]: 129% | viability, T/C [13]: 114% | viability, T/C [14]: 173% | viability, T/C [15]: 133% | viability, T/C [16]: 113% | viability, T/C [17]: 138% | viability, T/C [18]: 132% | viability, T/C [19]: 151% | viability, T/C [20]: 130% | viability, T/C [21]: 103% | viability, T/C [22]: 137% | viability, T/C [23]: 138% | viability, T/C [24]: 144% | viability, T/C [25]: 152% | viability, T/C [26]: 144% | viability, T/C [27]: 147% | viability, T/C [28]: 109% | viability, T/C [29]: 143% | viability, T/C [30]: 149% | viability, T/C [31]: 130% | viability, T/C [32]: 139% | viability, T/C [33]: 142% | viability, T/C [34]: 123% | viability, T/C [35]: 128% | viability, T/C [36]: 121%

CCc1c2c(nc3ccc(O)cc13)-c1cc3c(c(=O)n1C2)COC(=O)[C@]3(O)CC + C=CC(=O)N1CCN(c2nc(OCC3CCCN3C)nc3c(F)c(-c4nc(N)cc(C)c4C(F)(F)F)c(Cl)cc23)C(C)C1
pIC50 (second compound 0.00316 µM): 7.50 | pIC50 (second compound 0.01 µM): 7.46 | pIC50 (second compound 0.0316 µM): 7.31 | pIC50 (second compound 0.1 µM): 7.46 | pIC50 (second compound 0.316 µM): 7.39 | pIC50 (second compound 1 µM): 7.29 | viability, T/C [1]: 94% | viability, T/C [2]: 121% | viability, T/C [3]: 84.4% | viability, T/C [4]: 51% | viability, T/C [5]: 27.1% | viability, T/C [6]: 13.1% | viability, T/C [7]: 103% | viability, T/C [8]: 133% | viability, T/C [9]: 82.4% | viability, T/C [10]: 56.1% | viability, T/C [11]: 26.9% | viability, T/C [12]: 12.3% | viability, T/C [13]: 112% | viability, T/C [14]: 132% | viability, T/C [15]: 83.3% | viability, T/C [16]: 67.1% | viability, T/C [17]: 32.3% | viability, T/C [18]: 11.8% | viability, T/C [19]: 111% | viability, T/C [20]: 129% | viability, T/C [21]: 104% | viability, T/C [22]: 54% | viability, T/C [23]: 23.1% | viability, T/C [24]: 16% | viability, T/C [25]: 105% | viability, T/C [26]: 137% | viability, T/C [27]: 77.1% | viability, T/C [28]: 63.7% | viability, T/C [29]: 28.8% | viability, T/C [30]: 14.7% | viability, T/C [31]: 104% | viability, T/C [32]: 114% | viability, T/C [33]: 86.7% | viability, T/C [34]: 66% | viability, T/C [35]: 32.7% | viability, T/C [36]: 10.9%

C=CC(=O)Nc1cc(Nc2nccc(-c3cn(C)c4ccccc34)n2)c(OC)cc1N(C)CCN(C)C + CCn1c(-c2cc(N3CCN(C)CC3)cnc2C(C)OC)c2c3cc(ccc31)-c1csc(n1)CC(NC(=O)C1CC1C)C(=O)N1CCCC(N1)C(=O)OCC(C)(C)C2
pIC50 (second compound 0.000949 µM): 6.49 | pIC50 (second compound 0.003 µM): 7.15 | pIC50 (second compound 0.00949 µM): > 8.50 | pIC50 (second compound 0.03 µM): > 8.50 | pIC50 (second compound 0.0949 µM): > 8.50 | pIC50 (second compound 0.3 µM): > 8.50 | viability, T/C [37]: 90.9% | viability, T/C [38]: 90% | viability, T/C [39]: 61.8% | viability, T/C [40]: 75.8% | viability, T/C [41]: 51.8% | viability, T/C [42]: 25.3% | viability, T/C [43]: 76% | viability, T/C [44]: 61.4% | viability, T/C [45]: 54.9% | viability, T/C [46]: 52.2% | viability, T/C [47]: 35.2% | viability, T/C [48]: 19% | viability, T/C [49]: 48.4% | viability, T/C [50]: 40.9% | viability, T/C [51]: 41.2% | viability, T/C [52]: 30.7% | viability, T/C [53]: 21.2% | viability, T/C [54]: 15.3% | viability, T/C [55]: 31.3% | viability, T/C [56]: 30.7% | viability, T/C [57]: 24% | viability, T/C [58]: 22% | viability, T/C [59]: 14.8% | viability, T/C [60]: 16.7% | viability, T/C [61]: 21.2% | viability, T/C [62]: 20.6% | viability, T/C [63]: 20.1% | viability, T/C [64]: 18.1% | viability, T/C [65]: 13% | viability, T/C [66]: 15.9% | viability, T/C [67]: 18.6% | viability, T/C [68]: 18.2% | viability, T/C [69]: 15.7% | viability, T/C [70]: 14% | viability, T/C [71]: 14.6% | viability, T/C [72]: 14.9%

O=C(c1ccc(F)c(F)c1Nc1ccc(I)cc1F)N1CC(O)([C@@H]2CCCCN2)C1 + CCn1c(-c2cc(N3CCN(C)CC3)cnc2C(C)OC)c2c3cc(ccc31)-c1csc(n1)CC(NC(=O)C1CC1C)C(=O)N1CCCC(N1)C(=O)OCC(C)(C)C2
pIC50 (second compound 0.000949 µM): 7.45 | pIC50 (second compound 0.003 µM): 7.91 | pIC50 (second compound 0.00949 µM): > 8.50 | pIC50 (second compound 0.03 µM): > 8.50 | pIC50 (second compound 0.0949 µM): > 8.50 | pIC50 (second compound 0.3 µM): > 8.50 | viability, T/C [37]: 89.8% | viability, T/C [38]: 71.1% | viability, T/C [39]: 44.3% | viability, T/C [40]: 42.3% | viability, T/C [41]: 29% | viability, T/C [42]: 16.6% | viability, T/C [43]: 72.4% | viability, T/C [44]: 47.5% | viability, T/C [45]: 39.8% | viability, T/C [46]: 32.4% | viability, T/C [47]: 23.1% | viability, T/C [48]: 15.4% | viability, T/C [49]: 39.9% | viability, T/C [50]: 30.8% | viability, T/C [51]: 30.6% | viability, T/C [52]: 21.9% | viability, T/C [53]: 15.2% | viability, T/C [54]: 16.2% | viability, T/C [55]: 24.9% | viability, T/C [56]: 21.4% | viability, T/C [57]: 19.8% | viability, T/C [58]: 18% | viability, T/C [59]: 14.5% | viability, T/C [60]: 14% | viability, T/C [61]: 21.9% | viability, T/C [62]: 17.8% | viability, T/C [63]: 17.6% | viability, T/C [64]: 14.1% | viability, T/C [65]: 11.2% | viability, T/C [66]: 12.3% | viability, T/C [67]: 17.4% | viability, T/C [68]: 16.4% | viability, T/C [69]: 13.3% | viability, T/C [70]: 14.1% | viability, T/C [71]: 10.9% | viability, T/C [72]: 11.3%
